Experimental data taken from patent US20240059698A1 (Accutar Biotechnology Inc., priority 2022, published 2024).

Legend:
Format in all cases: cell-based
HCC827 cells = experiment: Cell growth inhibition (CellTiter-Glo), HCC827; settings: Homo sapiens, 72 h, 3 days
Summary of the method: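 Readout was CellTiter-Glo luminescence after 3-day compound treatment at 37° C. Cells were seeded at 5000/well the previous night: HCC827 in RPMI/10% FBS, A431 in DMEM/10% FBS.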

[1] = tested on: HCC827-YVMA cells (human ERBB2 exon20 insertion mutant A775_G776ins YVMA); experiment: Cell growth inhibition (CellTiter-Glo), HCC827-YVMA; settings: 72 h, HCC827-YVMA cells, 3 days, CellTiter-Glo, read-out: Cell growth inhibition, GI50 (nM) HCC827-YVMA
Summary of the method: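 Growth in RPMI with 10% FBS was measured by CellTiter-Glo luminescence after 3 days at 37 °C with test compounds across a concentration range. The single-clone HCC827 lines carry a lentiviral YVMA (ERBB2) or ASV (EGFR) exon 20 insertion, with endogenous EGFR removed via sgRNA/Cas9.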

A431 cells = experiment: Cell growth inhibition (CellTiter-Glo), A431; settings: Homo sapiens, A-431, 72 h, 3 days
Method: (§1) 2. Cell Growth Inhibition for HCC827, HCC827-SVD, HCC827-ASV, HCC827-YVMA, and A431.
(§2) HCC827(ATCC), HCC827-SVD, HCC827-ASV, and HCC827-YVMA cells were seeded in 96-well plates at 5000 cells/well in 90 μL of RPMI growth medium containing 10% FBS and 1% Penicillin Streptomycin. A431 (ATCC) cells were seeded in 96-well plates at 5000 cells/well in 90 μL of DMEM growth medium containing 10% FBS and 1% Penicillin Streptomycin. Cells were incubated at 37° C. overnight and then administered with 10 μL 10× test compounds prepared in the growth medium at various concentrations. After administration of the compounds, cells were incubated at 37° C. for 3 days. Before the CellTiter-Glo assay, the plates were equilibrated at room temperature for approximately 30 minutes. 100 ul of CellTiter-Glo reagent (Promega) was added to each well. The plates were then incubated at room temperature for 10 minutes and luminescence was recorded by the EnSight® multimode plate reader (PerkinElmer). Table 7 listed selected compounds in cellular growth assay.

[2] = tested on: HCC827-SVD cells (human EGFR exon 20 insertion mutant D770_N771insSVD); experiment: Cell growth inhibition (CellTiter-Glo), HCC827-SVD; settings: 72 h, 3 days
Summary of the method: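 Growth read by CellTiter-Glo luminescence after 3-day compound exposure at 37 °C. Engineered clonal HCC827 line (native EGFR deleted by CRISPR, mutant EGFR re-expressed) plated at 5000 cells/well in 10% FBS RPMI the night before dosing.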

[3] = tested on: HCC827-ASV cells (human EGFR exon 20 insertion mutant V769_D770insASV); experiment: Cell growth inhibition (CellTiter-Glo), HCC827-ASV; settings: 72 h, HCC827-ASV cells, 3 days, CellTiter-Glo, read-out: Cell growth inhibition, GI50 (nM) HCC827-ASV
Method: Generation of HCC827-SVD, HCC827-ASV, and HCC827-YVMA cell lines. The HCC827-SVD cell line was generated by first transducing HCC827 cells (ATCC) with lentiviral particles expressing codon-optimized human EGFR exon 20 insertion mutant D770_N771insSVD, and then selecting under 5 µg/mL puromycin treatment for a week. The resulting cells were further transduced with lentiviral particles carrying EGFR sgRNA and CAS9 to knockout the endogenous alleles of EGER and then selected under 500 µg/mL hygromycin B treatment for two weeks. The limiting dilution approach was used to subsequently generate the single clone of the HCC827-SVD stable cell line. Endogenous EGFR knockout was confirmed by Sanger sequencing of cell genomic DNA, and expression of exogenous mutant EGFR was verified by Western blot analysis.
HCC827-ASV and HCC827-YVMA cell lines were generated in a similar approach as HCC827-SVD, except that HCC827 cells (ATCC) were first transduced with lentiviral particles expressing codon-optimized human EGFR exon 20 insertion mutant V769_D770insASV and human ERBB2 exon20 insertion mutant A775_G776ins YVMA, respectively.
as §1, §2

C=CC(=O)N1CCC(c2n[nH]c3ncnc(Nc4ccc(Oc5nc(-c6ccc(C(F)(F)F)nc6)cs5)cc4F)c23)CC1 [Compound 188, 1-(4-(4-((2-fluoro-4-((4-(6-(trifluoromethyl)pyridin-3-yl)thiazol-2-yl)oxy)phenyl)amino)-1H-pyrazolo[3,4-d]pyrimidin-3-yl)piperidin-1-yl)prop-2-en-1-one]
GI50 (HCC827 cells): 200 to 1000 nM | GI50 [1]: 50 to 200 nM | GI50 (A431 cells): > 1000 nM | GI50 [2]: 50 to 200 nM

C=CC(=O)N1CCC(c2n[nH]c3ncnc(Nc4ccc(Oc5nc(-c6cnc(C)c(F)c6)cs5)cc4F)c23)CC1 [Compound 190, 1-[4-[4-[2-fluoro-4-[4-(5-fluoro-6-methyl-3-pyridyl)thiazol-2-yl]oxy-anilino]-1H-pyrazolo[3,4-d]pyrimidin-3-yl]-1-piperidyl]prop-2-en-1-one]
GI50 (HCC827 cells): 200 to 1000 nM | GI50 [1]: 50 to 200 nM | GI50 (A431 cells): > 1000 nM | GI50 [2]: 50 to 200 nM

C=CC(=O)N1CCC(c2n[nH]c3ncnc(Nc4ccc(Oc5nc(-c6ccnn6C)cs5)cc4F)c23)CC1 [Compound 191, 1-(4-(4-((2-fluoro-4-((4-(1-methyl-1H-pyrazol-5-yl)thiazol-2-yl)oxy)phenyl)amino)-1H-pyrazolo[3,4-d]pyrimidin-3-yl)piperidin-1-yl)prop-2-en-1-one]
GI50 (HCC827 cells): 200 to 1000 nM | GI50 [1]: 200 to 1000 nM | GI50 (A431 cells): > 1000 nM | GI50 [2]: 200 to 1000 nM

C=CC(=O)N1CCC(c2n[nH]c3ncnc(Nc4ccc(OCc5nnsc5Cl)cc4F)c23)CC1 [Compound 195, 1-(4-(4-((4-((5-chloro-1,2,3-thiadiazol-4-yl)methoxy)-2-fluorophenyl)amino)-1H-pyrazolo[3,4-d]pyrimidin-3-yl)piperidin-1-yl)prop-2-en-1-one]
GI50 (HCC827 cells): < 50 nM | GI50 [1]: 50 to 200 nM | GI50 (A431 cells): > 1000 nM | GI50 [2]: < 50 nM

C=CC(=O)N1CCC(c2ccn3ncnc(Nc4ccc(Oc5ccnc(N6CC7C(C6)C7(F)F)c5)cc4F)c23)CC1 (stereo not shown) [Compound 200, 1-(4-(4-((4-((2-(6,6-difluoro-3-azabicyclo[3.1.0]hexan-3-yl)pyridin-4-yl)oxy)-2-fluorophenyl)amino)pyrrolo[2,1-f][1,2,4]triazin-5-yl)piperidin-1-yl)prop-2-en-1-one]
GI50 (HCC827 cells): 200 to 1000 nM | GI50 [1]: 50 to 200 nM | GI50 (A431 cells): > 1000 nM | GI50 [2]: 50 to 200 nM

C=CC(=O)N1CCC(c2ccn3ncnc(Nc4ccc(Oc5ccnc(N6CC(C)(OC)C6)c5)cc4F)c23)CC1 [Compound 203, 1-(4-(4-((2-fluoro-4-((2-(3-methoxy-3-methylazetidin-1-yl)pyridin-4-yl)oxy)phenyl)amino)pyrrolo[2,1-f][1,2,4]triazin-5-yl)piperidin-1-yl)prop-2-en-1-one]
GI50 (HCC827 cells): > 1000 nM | GI50 [1]: 50 to 200 nM | GI50 (A431 cells): > 1000 nM | GI50 [2]: 200 to 1000 nM

C=CC(=O)N1CCC(c2ccn3ncnc(Nc4ccc(Oc5ccnc(N6CCC(C#N)C6)c5)cc4F)c23)CC1 (stereo not shown) [Compound 204, 1-(4-(4-((5-(1-acryloylpiperidin-4-yl)pyrrolo[2,1-f][1,2,4]triazin-4-yl)amino)-3-fluorophenoxy)pyridin-2-yl)pyrrolidine-3-carbonitrile]
GI50 (HCC827 cells): > 1000 nM | GI50 [1]: 50 to 200 nM | GI50 (A431 cells): > 1000 nM | GI50 [2]: 50 to 200 nM

C=CC(=O)N1CCC(c2ccn3ncnc(Nc4ccc(Oc5ccnc(N6CC7(CCOCC7)C6)c5)cc4F)c23)CC1 [Compound 205, 1-(4-(4-((4-((2-(7-oxa-2-azaspiro[3.5]nonan-2-yl)pyridin-4-yl)oxy)-2-fluorophenyl)amino)pyrrolo[2,1-f][1,2,4]triazin-5-yl)piperidin-1-yl)prop-2-en-1-one]
GI50 (HCC827 cells): > 1000 nM | GI50 [1]: 50 to 200 nM | GI50 (A431 cells): > 1000 nM | GI50 [2]: 200 to 1000 nM

C=CC(=O)N1CCC(c2ccn3ncnc(Nc4ccc(Oc5nc(-c6cnc(C)c(F)c6)cs5)cc4F)c23)CC1 [Compound 206, 1-[4-[4-[2-fluoro-4-[4-(5-fluoro-6-methyl-3-pyridyl)thiazol-2-yl]oxy-anilino]pyrrolo[2,1-f][1,2,4]triazin-5-yl]-1-piperidyl]prop-2-en-1-one]
GI50 (HCC827 cells): > 1000 nM | GI50 [1]: 50 to 200 nM | GI50 (A431 cells): > 1000 nM | GI50 [2]: 200 to 1000 nM

C=CC(=O)N1CCC(c2ccn3ncnc(Nc4ccc(Oc5nc(-c6ccnn6C)cs5)cc4F)c23)CC1 [Compound 207, 1-(4-(4-((2-fluoro-4-((4-(1-methyl-1H-pyrazol-5-yl)thiazol-2-yl)oxy)phenyl)amino)pyrrolo[2,1-f][1,2,4]triazin-5-yl)piperidin-1-yl)prop-2-en-1-one]
GI50 (HCC827 cells): > 1000 nM | GI50 [1]: 50 to 200 nM | GI50 (A431 cells): > 1000 nM | GI50 [2]: 200 to 1000 nM

C=CC(=O)N1CCC(c2c[nH]c3ncnc(Nc4ccc(OCc5cscn5)c(Cl)c4F)c23)CC1 [Compound 216, 1-(4-(4-((3-chloro-2-fluoro-4-(thiazol-4-ylmethoxy)phenyl)amino)-7H-pyrrolo[2,3-d]pyrimidin-5-yl)piperidin-1-yl)prop-2-en-1-one]
GI50 [1]: < 50 nM | GI50 [2]: < 50 nM | GI50 [3]: < 50 nM

C=CC(=O)N1CCC(c2c[nH]c3ncnc(Nc4ccc(OCc5csc(C)n5)c(Cl)c4)c23)CC1 [Compound 217, 1-(4-(4-((3-chloro-4-((2-methylthiazol-4-yl)methoxy)phenyl)amino)-7H-pyrrolo[2,3-d]pyrimidin-5-yl)piperidin-1-yl)prop-2-en-1-one]
GI50 [1]: < 50 nM | GI50 [2]: < 50 nM | GI50 [3]: < 50 nM

C=CC(=O)N1CCC(c2c[nH]c3ncnc(Nc4ccc(O[C@H](C)c5cscn5)c(Cl)c4)c23)CC1 [Compound 218, (R)-1-(4-(4-((3-chloro-4-(1-(thiazol-4-yl)ethoxy)phenyl)amino)-7H-pyrrolo[2,3-d]pyrimidin-5-yl)piperidin-1-yl)prop-2-en-1-one]
GI50 [1]: < 50 nM | GI50 [2]: < 50 nM | GI50 [3]: < 50 nM

C=CC(=O)N1CCC(c2c[nH]c3ncnc(Nc4ccc(OCc5ncsc5C)c(Cl)c4)c23)CC1 [Compound 219, 1-(4-(4-((3-chloro-4-((5-methylthiazol-4-yl)methoxy)phenyl)amino)-7H-pyrrolo[2,3-d]pyrimidin-5-yl)piperidin-1-yl)prop-2-en-1-one]
GI50 [1]: < 50 nM | GI50 [2]: < 50 nM | GI50 [3]: < 50 nM

C=CC(=O)N1CCC(c2c[nH]c3ncnc(Nc4ccc(OCc5ccccn5)c(Br)c4F)c23)CC1 [Compound 220, 1-[4-[4-[3-bromo-2-fluoro-4-(2-pyridylmethoxy)anilino]-7H-pyrrolo[2,3-d]pyrimidin-5-yl]-1-piperidyl]prop-2-en-1-one]
GI50 [1]: < 50 nM | GI50 [2]: < 50 nM | GI50 [3]: < 50 nM

C=CC(=O)N1CCC(c2c[nH]c3ncnc(Nc4cc(Cl)c(OCc5ccccn5)cc4F)c23)CC1 [Compound 221, 1-(4-(4-((5-chloro-2-fluoro-4-(pyridin-2-ylmethoxy)phenyl)amino)-7H-pyrrolo[2,3-d]pyrimidin-5-yl)piperidin-1-yl)prop-2-en-1-one]
GI50 [1]: < 50 nM | GI50 [2]: < 50 nM | GI50 [3]: < 50 nM

C=CC(=O)N1CCC(c2c[nH]c3ncnc(Nc4cc(Cl)c(OCc5ccccn5)cc4Cl)c23)CC1 [Compound 222, 1-[4-[4-[2,5-dichloro-4-(2-pyridylmethoxy)anilino]-7H-pyrrolo[2,3-d]pyrimidin-5-yl]-1-piperidyl]prop-2-en-1-one]
GI50 [1]: < 50 nM | GI50 [2]: < 50 nM | GI50 [3]: < 50 nM

C=CC(=O)N1CCC(c2c[nH]c3ncnc(Nc4ccc(OCc5ncc(F)s5)c(Cl)c4)c23)CC1 [Compound 223, 1-[4-[4-[3-chloro-4-[(5-fluorothiazol-2-yl)methoxy]anilino]-7H-pyrrolo[2,3-d]pyrimidin-5-yl]-1-piperidyl]prop-2-en-1-one]
GI50 [1]: < 50 nM | GI50 [2]: < 50 nM | GI50 [3]: < 50 nM
